pIC50: −log10 of the molar value.
What was measured:
[1] = biological target: T1, Farnesyl pyrophosphate synthase (Homo sapiens) (UniProt P14324); test: Inhibition of N-terminal His-tagged human FPPS expressed in Escherichia coli at 10 uM
T1 sequence (whole entry): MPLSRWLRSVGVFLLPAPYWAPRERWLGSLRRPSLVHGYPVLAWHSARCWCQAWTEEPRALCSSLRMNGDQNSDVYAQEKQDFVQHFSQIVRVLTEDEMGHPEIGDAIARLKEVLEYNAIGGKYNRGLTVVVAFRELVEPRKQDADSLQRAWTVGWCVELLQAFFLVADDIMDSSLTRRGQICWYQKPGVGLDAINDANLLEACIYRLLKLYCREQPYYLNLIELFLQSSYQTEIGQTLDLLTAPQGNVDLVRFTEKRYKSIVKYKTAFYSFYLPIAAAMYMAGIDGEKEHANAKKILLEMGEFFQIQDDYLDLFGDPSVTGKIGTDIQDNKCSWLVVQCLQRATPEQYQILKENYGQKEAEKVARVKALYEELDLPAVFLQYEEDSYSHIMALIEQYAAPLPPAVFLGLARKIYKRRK

[2] = biological target: T1, Farnesyl pyrophosphate synthase (Homo sapiens); test: Inhibition of N-terminal His-tagged human FPPS expressed in Escherichia coli at 1 uM
[3] = biological target: T2, Farnesyl pyrophosphate synthase (Homo sapiens, UniProt P14324); test: Inhibition of N-terminal His-tagged human FPPS expressed in Escherichia coli
T2 sequence (P14324 whole entry): T1 sequence (whole entry)

inhibition [1] [%]	inhibition [2] [%]	pIC50 [3]	Compound
86			Cc1noc(C)c1-c1cncc(CC(F)(P(=O)(O)O)P(=O)(O)O)c1
	> 50	6.15	O=P(O)(O)C(F)(Cc1cncc(-c2ccc3[nH]ncc3c2)c1)P(=O)(O)O
81			O=P(O)(O)C(F)(Cc1cncc(-c2cccc3[nH]ncc23)c1)P(=O)(O)O
	> 50	6.19	O=P(O)(O)C(F)(Cc1cncc(-c2cn[nH]c2)c1)P(=O)(O)O

From ChEMBL document CHEMBL1255548, “Novel bisphosphonate inhibitors of the human farnesyl pyrophosphate synthase” (Bioorg Med Chem Lett, 2010)
